These results are taken from patent publication US9073858B2, “Methods of targeted drug development” (priority 2010, dated 2015).

Where two headings read alike, the source gives them in different places.

The subject of one data set is H1975 cells. Description: H1975 Cell Proliferation Assay (MTT). Type of data set: cell-based. As to conditions: Homo sapiens.
The next data set has as its system annexin V in A549 cells. As to conditions: for % Total Apoptosis: cells in early- and late-stage apoptosis; for % Relative to Reference Cpd.: reference 4.0 μM camptothecin or 1.0 μM staurosporin. The text has this: Assays that measure apoptosis are utilized to determine whether or not compounds can induce programmed cell death in cancer cells. Annexin V is a protein that is used to detect apoptosis by binding to phosphatidylserine expressed on membranes of dead or dying cells. Fluorescently tagged with FITC, it can he used in conjunction with 7-aminoactinomycin D to determine the percentage of cells undergoing apoptosis via flow cytometry. Cells in early apoptosis will emit an FITC signal which will eventually be replaced by the far red 7-AAD signal that is associated with cell membrane permeability due to necrosis.
In brief, for the Annexin V Assay, compounds were added to cells plated in 6-well plates. Treated cells were incubated for up to 30 hours before addition of fluorescent cell marker probes that detect the presence of annexin V. The percentage of cells undergoing apoptosis and necrosis were determined by flow cytometry.
On day 2, working solutions of compounds (at 1000×) were prepared. To 2.0 ml media/well was added 2 μl 1000× compound diluted in 100% DMSO for final DMSO concentration of 0.1%. On day 3, plates were incubated for 30 hrs. […] Cells were collected by centrifugation at 300×g for 5 min.
Resuspended cells were stored at 4° C. in the dark, until flow cytometry analysis.
For flow cytometry analysis of the Annexin V Assay, sample acquisition was on the BD LSR II manufactured by BD Biosciences, San Jose, Calif. […] 10,000 events werer collected based on a stopping gate of forward scatter vs side scatter light. Acquisition was done through BD FACS DiVa software version 6.1.1 on high flow rate (60 μL/min). Calculations were as follows: Quadrant 3=lower left=live cells; Quadrant 4=lower right=early apoptosis; Quadrant 2=upper right=late apoptosis; Quadrant 1=upper left=dead cells. Percent (%)Total apoptosis was calculated as early (quadrant 4)+late (quadrant 2). Percent (%) ratio apoptosis was calculated as (experimental-No treatment/positive control)*100. All statistical analyses are done using GraphPad Prism or Microsoft Excel.

Data set [1] is described as follows: Stability on incubation with human liver microsomes (HLM). The data set is classed as in vitro ADME. As to conditions: percentage left after incubation with human liver microsomes for 30 minutes. The essentials:
(§1)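 Values are percent compound remaining after 30 min incubation with mouse or human liver microsomes.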

A short description of data set [2]: Stability on incubation with mouse liver microsomes (MLM). Type of data set: in vitro ADME. As to conditions: percentage left after incubation with mouse liver microsomes for 30 minutes. The essentials:
as §1

A short description of data set [3]: Pharmacokinetics, intravenous and oral dose. Also noted: species or system male CD-1 mice. As to conditions: in vivo; for Cmax: plasma; for half-life: read-out: Half-life (t1/2; h) (converted). On the procedure: Plasma levels of the test compounds were determined by LC-MS/MS. Data was analyzed by non compartmental pharmacokinetic model by using WinNonlin.
The next data set deals with A549 cells. Description: A549 Cell Proliferation Assay (MTT). Type of data set: cell-based. As to conditions: Homo sapiens.
[4] abbreviates: NCI-H1975, 72 h, read-out: IC50 Value (μM) H1975 Cells.
[5] abbreviates: mouse, iv, 1 mg/kg, male CD-1 mice.
Setting [6] is: mouse, po, 5 mg/kg, male CD-1 mice.
Where [7] appears, read: mouse, po, 5 mg/kg, male CD-1 mice, read-out: Tmax.
[8] abbreviates: A549, 72 h, read-out: IC50 Value (μM) A549 Cells.

Usually AUC stands for the area under the concentration-time curve, a measure of exposure. The low end stands for less exposure, the high end for more exposure. Broadly, the Tmax is the time from dosing to the highest level. A word on the Cmax: it is the highest concentration seen after dosing. On to `Cc1c(Cl)cnc(NC(c2cccc(Cl)c2Cl)c2ccc3cccnc3c2O)c1F` (centres unmarked) [AD4-13192], for which the figures for the IC50 with H1975 cells (setting [4]) and with A549 cells (setting [8]) were 0.19 µM and 0.15 µM, respectively. For the same molecule, the “% Total Apoptosis” value is given as 29% in the data set with annexin V in A549 cells (1 μM, A549 cells) and 30% with annexin V in A549 cells (10 μM, A549 cells). Also, in data set [1], the “HLM % Remaining@ 30 Min” value came to 100%. The “MLM % Remaining@ 30 Min” value in data set [2] is recorded as 63%. Also, the AUC in data set [3] (male, CD-1, mouse, iv, 1 mg/kg) is 1390 ng·h/mL; in data set [3] (male, CD-1, mouse, po, 5 mg/kg) it was 115 ng·h/mL. In addition, the Tmax in data set [3] (male, CD-1, mouse, iv, 1 mg/kg) is 4.98 min; in data set [3] (setting [7]), 30 min. The Vd in data set [3] (setting [5]) was determined as 0.56 L/kg. Further, the clearance in data set [3] (setting [5]) is 12 mL/min/kg. In addition, the figures for the Cmax in data set [3] (setting [5]) and in data set [3] (setting [6]) were 3550 ± 571 ng/mL and 59 ± 21 ng/mL, respectively. The half-life in data set [3] (setting [5]) was 88.2 min.
For the molecule `Oc1c(C(Nc2ccccn2)c2ccc(C(F)(F)F)cc2)ccc2cccnc12` (centres unmarked) [compound 10460], the IC50 in the data set with H1975 cells (NCI-H1975, H1975 cells, 72 hours post compound treatment, read-out: IC50 (best fit value from FIG. 10)) was 0.304 µM; with H1975 cells (NCI-H1975, H1975 cells, 72 hours post compound treatment, read-out: Log IC50 (best fit value from FIG. 10) (converted)), 0.304 µM; in the data set with H1975 cells (NCI-H1975, MTT, 72 hours, read-out: IC50 Value (μM) H1975 Cells), 0.3 µM.
Consider `Cc1cc(Cl)cnc1NC(c1ccc(Cl)cc1Cl)c1ccc2cccnc2c1O` (centres unmarked) [AD4-13130], for which the IC50 in the data set with H1975 cells (setting [4]) is 0.088 µM; with A549 cells (setting [8]), 0.12 µM; in the data set on A549 cells (A549, read-out: IC50, cell proliferation in A549 or H1975 cells), no more than 0.1 µM. For the same molecule, in the data set with annexin V in A549 cells (1 μM, A549 cells, FIG. 16B), the “apoptosis, share of the cell population” value is reported as “greater than 50%”. Besides, the “% Total Apoptosis” value came to 32% with annexin V in A549 cells (1 μM, A549 cells) and 38% in the data set with annexin V in A549 cells (10 μM, A549 cells). Besides, the “% Relative to Reference Cpd.” value is recorded as 178% in the data set on annexin V in A549 cells (1 μM) and 166% in the data set with annexin V in A549 cells (10 μM). In addition, the “late apoptosis, share of the cell population” value in the data set on annexin V in A549 cells (10 μM, A549 cells, FIG. 16B) was “up to 20%”. The “HLM % Remaining@ 30 Min” value in data set [1] was determined as 89%. For the same molecule, in data set [2], the “MLM % Remaining@ 30 Min” value worked out at 69%. The exposure (AUC) was determined as 609 ng·h/mL in data set [3] (male, CD-1, mouse, iv, 1 mg/kg) and 278 ng·h/mL in data set [3] (male, CD-1, mouse, po, 5 mg/kg). The time to peak (Tmax) was 4.98 min in data set [3] (male, CD-1, mouse, iv, 1 mg/kg) and 60 min in data set [3] (setting [7]). Also, in data set [3] (setting [5]), the Vd was 3.24 L/kg. Besides, the clearance in data set [3] (setting [5]) was 27.3 mL/min/kg. Also, the Cmax in data set [3] (setting [5]) amounted to 669 ± 45 ng/mL; in data set [3] (setting [6]), 131 ± 51 ng/mL. Moreover, the half-life in data set [3] (setting [5]) was 112 min.
